Common to all, as to format: functional, cell-based
Holding throughout (settings): Homo sapiens

For test [1], the system named is HT-29. The experiment in a line: Cytotoxicity against HT29 cell line.
In test [2] the test system is HT-29. The experiment in a line: Cytotoxicity against HT29 cells in presence of Escherichia coli nitroreductase.
Test [3] has as its system HT-29. The experiment in a line: Cytotoxicity against HT29 cells in hypoxic condition after 5 hrs.

Broadly, the IC50 is the midpoint of a concentration-inhibition curve.

The source made the active and inactive calls. The calls are words filed in the database; no cut-off is given here.

Compound `COc1cccc2c1C(=O)c1c(O)c3c(c(O)c1C2=O)C[C@@](O)(C(=O)CO)C[C@@H]3O[C@H]1C[C@H](N)[C@H](O)[C@H](C)O1` [DOXORUBICIN] yielded a concentration for half-maximal inhibition (IC50) with HT-29 [1] of 2.37 µM.
In the case of `BrCC1Nc2ccc3cc4ccccc4nc3c2CO1` (stereo not given), the IC50 in the test with HT-29 [1] is 1.25 µM.
Same read-out and setting: the same measure for `c1ccc2nc3c4c(ccc3cc2c1)NCOC4`: 2.25 µM; for `CC1Nc2ccc3cc4ccccc4nc3c2CO1` (stereo not given): 0.6 µM.
As for `O=[N+]([O-])c1ccc(C2Nc3ccc4cc5ccccc5nc4c3CO2)cc1` (stereo not given), the values for the IC50 in the test with HT-29 [2] and in the test with HT-29 [1] were 0.2 µM and 2.3 µM, respectively. Further, the outcome in the test on HT-29 [3] was inactive.
The compound `ClCC1Nc2ccc3cc4ccccc4nc3c2CO1` (stereo not given) displayed a half-maximal inhibitory concentration (IC50) in the test with HT-29 [1] of 1.25 µM.
Same read-out and setting: in the case of `c1ccc(C2Nc3ccc4cc5ccccc5nc4c3CO2)cc1` (stereo not given) it was 0.4 µM; in that of `c1ccc(COCC2Nc3ccc4cc5ccccc5nc4c3CO2)cc1` (stereo not given), 4 µM.

Values taken from ChEMBL document CHEMBL1148685, “3,4-Dihydro-1H-[1,3]oxazino[4,5-c]acridines as a new family of cytotoxic drugs” (Bioorg Med Chem Lett, 2006).
